Measurements published in ChEMBL document CHEMBL4825697, “Optimization and SAR research at the piperazine and phenyl rings of JNJ4796 as new anti-influenza A virus agents, part 1” (Eur J Med Chem, 2021).

Tests used:
Influenza A virus = test: Antiviral activity against Influenza A virus (H1N1) infected in dog MDCK cells assessed as inhibition of surface glycoprotein hemagglutinin; format: functional, organism-based
[1] = Cytotoxicity against dog MDCK cells assessed as reduction in cell viability; format: cell-based, Canis lupus familiaris
[2] = Selectivity index, ratio of CC50 for cytotoxicity against dog MDCK cells to IC50 for antiviral activity against Influenza A virus […] infected in dog MDCK cells; format: toxicity, cell-based; conditions: read-out: Selectivity Index
[3] = AUC (0 to infinity) in Balb/c mouse at 25 mg/kg, po administered as single dose; format: ADME, organism-based; parameters: time infinity, route oral, dose 25 mg/kg; conditions: in vivo
hERG (KCNH2) = hERG (KCNH2) (Homo sapiens, UniProt Q12809); test: Inhibition of human ERG at 10 uM
hERG (KCNH2), sequence (Q12809 whole entry): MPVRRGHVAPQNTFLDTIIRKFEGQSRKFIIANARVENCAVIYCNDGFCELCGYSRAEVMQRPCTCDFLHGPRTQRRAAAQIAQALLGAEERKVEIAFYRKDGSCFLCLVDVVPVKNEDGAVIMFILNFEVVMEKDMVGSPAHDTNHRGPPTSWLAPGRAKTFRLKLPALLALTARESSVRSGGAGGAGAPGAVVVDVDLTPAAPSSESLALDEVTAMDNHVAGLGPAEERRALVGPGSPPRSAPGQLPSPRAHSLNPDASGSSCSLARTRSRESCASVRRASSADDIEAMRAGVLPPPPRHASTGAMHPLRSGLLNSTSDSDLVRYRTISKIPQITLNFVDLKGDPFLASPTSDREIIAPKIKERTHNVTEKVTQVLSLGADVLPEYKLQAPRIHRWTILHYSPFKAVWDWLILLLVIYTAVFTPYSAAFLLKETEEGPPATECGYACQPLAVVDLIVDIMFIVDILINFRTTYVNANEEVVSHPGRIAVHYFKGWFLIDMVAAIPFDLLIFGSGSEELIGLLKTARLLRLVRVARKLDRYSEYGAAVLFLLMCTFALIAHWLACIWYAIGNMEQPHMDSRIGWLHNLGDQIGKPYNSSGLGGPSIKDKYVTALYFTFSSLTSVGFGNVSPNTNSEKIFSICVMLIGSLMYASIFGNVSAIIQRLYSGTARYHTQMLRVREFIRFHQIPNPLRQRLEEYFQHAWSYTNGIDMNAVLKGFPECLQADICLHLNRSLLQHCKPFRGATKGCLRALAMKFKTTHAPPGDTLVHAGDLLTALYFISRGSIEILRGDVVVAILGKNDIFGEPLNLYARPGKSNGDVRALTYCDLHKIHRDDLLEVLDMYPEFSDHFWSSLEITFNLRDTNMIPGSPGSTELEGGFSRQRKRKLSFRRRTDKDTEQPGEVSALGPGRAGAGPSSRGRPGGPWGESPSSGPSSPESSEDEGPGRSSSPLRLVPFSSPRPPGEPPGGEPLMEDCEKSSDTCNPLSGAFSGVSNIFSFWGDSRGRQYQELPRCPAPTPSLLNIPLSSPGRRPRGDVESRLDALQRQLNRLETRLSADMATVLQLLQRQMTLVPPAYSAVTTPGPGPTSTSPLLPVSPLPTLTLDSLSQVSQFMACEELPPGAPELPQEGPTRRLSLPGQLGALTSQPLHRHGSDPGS

[4] = Half life in Balb/c mouse at 25 mg/kg, po administered as single dose; format: ADME, organism-based; conditions: in vivo
[5] = Tmax in Balb/c mouse at 25 mg/kg, po administered as single dose; format: ADME, organism-based; conditions: in vivo
[6] = Cmax in Balb/c mouse at 25 mg/kg, po administered as single dose; format: ADME, organism-based; parameters: route oral, dose 25 mg/kg; conditions: in vivo

Row | SMILES | IC50 (Influenza A virus) [µM] | CC50 [1] [µM] | also measured
1 | CC(=O)Nc1ccc2oc(-c3ccnc(C(=O)N4CCN(C(c5cccc(F)c5)c5nnn(C)n5)CC4)c3)nc2c1 (stereo not drawn) | 2.47 | > 50 | –
2 | CC(=O)Nc1ccc2oc(-c3ccnc(C(=O)N4CCN(C(c5ccc(C)cc5)c5nnn(C)n5)CC4)c3)nc2c1 (stereo not drawn) | 4.28 | > 50 | –
3 | CC(=O)Nc1ccc2oc(-c3ccnc(C(=O)N4CCC5(CC4)CCN(C(c4ccccc4)c4nnn(C)n4)CC5)c3)nc2c1 (stereo not drawn) | > 50 | > 50 | –
4 | CC(=O)Nc1ccc2oc(-c3ccnc(C(=O)N4CC5CC4CN5C(c4ccccc4)c4nnn(C)n4)c3)nc2c1 (stereo not drawn) | 18.5 | > 50 | –
5 | CC(=O)Nc1ccc2oc(-c3ccnc(C(=O)N4CCN(C(c5ccc(C(F)(F)F)cc5)c5nnn(C)n5)CC4)c3)nc2c1 (stereo not drawn) | 12.8 | > 50 | –
6 | COc1ccc(C(c2nnn(C)n2)N2CCN(C(=O)c3cc(-c4nc5cc(NC(C)=O)ccc5o4)ccn3)CC2)cc1 (stereo not drawn) | 12 | > 50 | –
7 | NC(=O)c1ncn([C@@H]2O[C@H](CO)[C@@H](O)[C@H]2O)n1 [RIBAVIRIN] | 4.28 | > 200 | selectivity ratio [2]: > 46
8 | CC(=O)Nc1ccc2oc(-c3ccnc(C(=O)N4CCN(C(c5ccc(Cl)cc5)c5nnn(C)n5)CC4)c3)nc2c1 (stereo not drawn) | 1.71 | > 50 | –
9 | CC(=O)Nc1ccc2oc(-c3ccnc(C(=O)N4CC5(CCN(C(c6ccccc6)c6nnn(C)n6)CC5)C4)c3)nc2c1 (stereo not drawn) | 7.41 | 32 | –
10 | CC(=O)Nc1ccc2oc(-c3ccnc(C(=O)N4CCN(C(c5ccccc5)c5nnn(C)n5)CC4)c3)nc2c1 (racemic) | 0.35 | > 50 | AUC(0-inf) [3]: 1210 ng·h/mL; inhibition at 10 µM (hERG (KCNH2)): 53.8%; half-life [4]: 3.69 h; Tmax [5]: 0.25 h; Cmax [6]: 572 ng/mL
11 | CC(=O)Nc1ccc2oc(-c3ccnc(C(=O)N4CCN(C(c5ccc(OC(F)(F)F)cc5)c5nnn(C)n5)CC4)c3)nc2c1 (stereo not drawn) | 3.18 | > 50 | –
12 | CC(=O)Nc1ccc2oc(-c3ccnc(C(=O)N4CCN([C@@H](c5ccc(F)cc5)c5nnn(C)n5)CC4)c3)nc2c1 | 5.51 | > 200 | selectivity ratio [2]: > 36
13 | CC(=O)Nc1ccc2oc(-c3ccnc(C(=O)N4CCN([C@H](c5ccccc5)c5nnn(C)n5)CC4)c3)nc2c1 | 0.04 | 144 | selectivity ratio [2]: 3590
14 | CC(=O)Nc1ccc2oc(-c3ccnc(C(=O)N4CCN([C@H](c5ccc(F)cc5)c5nnn(C)n5)CC4)c3)nc2c1 | 0.03 | > 200 | AUC(0-inf) [3]: 1910 ng·h/mL; inhibition at 10 µM (hERG (KCNH2)): 13.2%; selectivity ratio [2]: > 6670; half-life [4]: 5.84 h; Tmax [5]: 0.33 h; Cmax [6]: 866 ng/mL
15 | CC(=O)Nc1ccc2oc(-c3ccnc(C(=O)N4CCN([C@@H](c5ccccc5)c5nnn(C)n5)CC4)c3)nc2c1 | 1.9 | > 200 | selectivity ratio [2]: > 105
16 | CC(=O)Nc1ccc2oc(-c3ccnc(C(=O)N4CCN(C(c5ccc([N+](=O)[O-])cc5)c5nnn(C)n5)CC4)c3)nc2c1 (stereo not drawn) | 7.41 | > 50 | –
17 | CC(=O)Nc1ccc2oc(-c3ccnc(C(=O)N4CCN(C(c5ccc(Br)cc5)c5nnn(C)n5)CC4)c3)nc2c1 (stereo not drawn) | 1.43 | > 50 | –
18 | CC(=O)Nc1ccc2oc(-c3ccnc(C(=O)N4CCN(C(c5ccc(F)cc5)c5nnn(C)n5)CC4)c3)nc2c1 (stereo not drawn) | 0.27 | > 50 | –
19 | CC(=O)Nc1ccc2oc(-c3ccnc(C(=O)N4CCC5(CC4)CN(C(c4ccccc4)c4nnn(C)n4)C5)c3)nc2c1 (stereo not drawn) | > 50 | > 50 | –
20 | CCOC(=O)C1=C[C@@H](OC(CC)CC)[C@H](NC(C)=O)[C@@H](N)C1 [OSELTAMIVIR] | 3.44 | > 200 | selectivity ratio [2]: > 58
21 | CC(=O)Nc1ccc2oc(-c3ccnc(C(=O)N4CCN(C(c5nnn(C)n5)c5ccccc5F)CC4)c3)nc2c1 (stereo not drawn) | 7.41 | > 50 | –
